From ChEMBL document CHEMBL1154163, “Pyrazole-based cathepsin S inhibitors with arylalkynes as P1 binding elements” (Bioorg Med Chem Lett, 2009)

Experiments:
Cathepsin S [1] = biological target: Cathepsin S (Homo sapiens, UniProt P25774); assay: Inhibition of human recombinant cathepsin S expressed in baculovirus by FRET assay
[2] = Cmax in Sprague-Dawley rat at 10 mg/kg, po; format: ADME, organism-based; parameters: dose 10 mg/kg, route oral; conditions: in vivo
Cathepsin B = Cathepsin B (Homo sapiens, UniProt P07858); assay: Inhibition of human cathepsin B
Rattus norvegicus = assay: AUC in Sprague-Dawley rat at 10 mg/kg, po; format: ADME, organism-based, Plasma; parameters: dose 10 mg/kg, route oral; conditions: in vivo
[3] = Half life in Sprague-Dawley rat at 2 mg/kg, iv; format: ADME, organism-based; parameters: dose 2 mg/kg, route intravenous; conditions: in vivo
Cathepsin F = biological target: T1, Cathepsin F (Homo sapiens, UniProt Q9UBX1); assay: Inhibition of human cathepsin F
T1 sequence (Q9UBX1 whole entry): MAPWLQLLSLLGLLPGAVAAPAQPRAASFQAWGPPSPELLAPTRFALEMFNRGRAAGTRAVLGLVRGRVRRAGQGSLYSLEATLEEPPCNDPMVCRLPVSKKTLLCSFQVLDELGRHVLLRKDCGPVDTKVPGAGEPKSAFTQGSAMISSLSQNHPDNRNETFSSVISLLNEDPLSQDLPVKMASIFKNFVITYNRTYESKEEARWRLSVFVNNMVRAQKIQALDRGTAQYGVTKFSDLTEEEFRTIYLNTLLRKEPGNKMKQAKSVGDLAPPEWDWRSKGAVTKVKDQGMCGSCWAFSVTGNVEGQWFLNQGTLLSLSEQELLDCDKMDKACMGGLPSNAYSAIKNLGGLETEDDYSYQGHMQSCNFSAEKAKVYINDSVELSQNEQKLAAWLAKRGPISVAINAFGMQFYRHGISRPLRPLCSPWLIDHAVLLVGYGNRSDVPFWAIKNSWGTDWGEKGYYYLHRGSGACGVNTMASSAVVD

[4] = Clearance in Sprague-Dawley rat at 2 mg/kg, iv; format: ADME, organism-based; parameters: dose 2 mg/kg, route intravenous; conditions: in vivo
Cathepsin S [5] = biological target: Cathepsin S (Mus musculus, UniProt O70370); assay: Inhibition of mouse cathepsin S expressed in baculovirus by FRET assay
[6] = Bioavailability in Sprague-Dawley rat at 2 mg/kg, iv; format: ADME, organism-based; conditions: in vivo
Procathepsin L = Procathepsin L (Homo sapiens, UniProt P07711); assay: Inhibition of human cathepsin L
Sequence of Procathepsin L (P07711 whole entry): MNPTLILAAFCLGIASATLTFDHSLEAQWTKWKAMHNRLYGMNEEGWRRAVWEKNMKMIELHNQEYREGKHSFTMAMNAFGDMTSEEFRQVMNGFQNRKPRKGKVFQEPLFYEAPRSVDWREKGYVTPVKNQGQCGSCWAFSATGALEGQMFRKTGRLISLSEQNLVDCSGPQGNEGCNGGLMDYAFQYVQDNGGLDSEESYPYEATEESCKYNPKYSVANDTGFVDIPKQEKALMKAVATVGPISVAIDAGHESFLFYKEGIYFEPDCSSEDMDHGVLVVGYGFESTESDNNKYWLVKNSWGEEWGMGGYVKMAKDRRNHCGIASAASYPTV

Sequence of Cathepsin S (Homo sapiens, UniProt P25774) (P25774 whole entry): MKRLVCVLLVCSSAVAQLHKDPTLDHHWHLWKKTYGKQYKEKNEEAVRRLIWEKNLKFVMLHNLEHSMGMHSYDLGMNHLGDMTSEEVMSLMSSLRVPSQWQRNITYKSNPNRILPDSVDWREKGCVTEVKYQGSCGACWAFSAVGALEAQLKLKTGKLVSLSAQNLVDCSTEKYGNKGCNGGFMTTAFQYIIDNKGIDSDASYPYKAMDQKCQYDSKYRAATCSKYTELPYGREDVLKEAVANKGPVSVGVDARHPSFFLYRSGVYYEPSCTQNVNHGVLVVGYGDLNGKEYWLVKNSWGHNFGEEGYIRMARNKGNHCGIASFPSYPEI
Sequence of Cathepsin S (Mus musculus, UniProt O70370) (O70370 whole entry): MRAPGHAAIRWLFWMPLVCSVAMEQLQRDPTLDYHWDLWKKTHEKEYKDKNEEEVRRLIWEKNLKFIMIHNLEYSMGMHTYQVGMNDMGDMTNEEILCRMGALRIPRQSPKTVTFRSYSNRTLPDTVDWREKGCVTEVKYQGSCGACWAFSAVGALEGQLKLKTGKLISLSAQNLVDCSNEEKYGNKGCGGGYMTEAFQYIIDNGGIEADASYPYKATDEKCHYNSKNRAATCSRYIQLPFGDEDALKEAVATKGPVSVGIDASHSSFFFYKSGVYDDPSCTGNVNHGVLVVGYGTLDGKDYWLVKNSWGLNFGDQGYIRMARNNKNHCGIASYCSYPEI

SMILES | IC50 (Cathepsin S [1]) | other results
CS(=O)(=O)N1CCc2c(c(-c3ccc(Cl)c(C#Cc4cccc(C(F)(F)F)c4)c3)nn2CCCN2CCOCC2)C1 | 1500 nM | –
COc1ccccc1C#Cc1cc(-c2nn(CCCN3CCOCC3)c3c2CN(S(C)(=O)=O)CC3)ccc1Cl | 550 nM | –
CS(=O)(=O)N1CCc2c(c(-c3ccc(Cl)c(C#Cc4ccc(C(=O)O)cc4)c3)nn2CCCN2CCOCC2)C1 | 510 nM | –
CS(=O)(=O)N1CCc2c(c(-c3ccc(Cl)c(C#Cc4ccsc4)c3)nn2CCCN2CCOCC2)C1 | 1500 nM | –
CC#Cc1cc(-c2nn(CCCN3CCOCC3)c3c2CN(S(C)(=O)=O)CC3)ccc1Cl | 7400 nM | –
CCCCC#Cc1cc(-c2nn(CCCN3CCOCC3)c3c2CN(S(C)(=O)=O)CC3)ccc1Cl | 11000 nM | –
Cc1ccccc1C#Cc1cc(-c2nn(CCCN3CCOCC3)c3c2CN(S(C)(=O)=O)CC3)ccc1Cl | 1100 nM | –
CS(=O)(=O)N1CCc2c(c(-c3ccc(Cl)c(C#Cc4ccc(Cl)cc4)c3)nn2CCCN2CCOCC2)C1 | – | Cmax [2]: 530 nM; IC50 (Cathepsin B): > 20000 nM; AUC (Rattus norvegicus): 48 uM.hr/L; half-life [3]: 2 h; IC50 (Cathepsin F): > 20000 nM; clearance [4]: 3 mL/min; IC50 (Cathepsin S [5]): 690 nM; bioavailability [6]: 21%; IC50 (Procathepsin L): > 20000 nM

More lines, main results first:

IC50 (Cathepsin S [1]) | SMILES | other results
330 nM | O=C(c1ccco1)N1CCc2c(c(-c3ccc(Cl)c(C#Cc4ccc(Cl)cc4)c3)nn2CCCN2CCOCC2)C1 | –
280 nM | CS(=O)(=O)N1CCc2c(c(-c3ccc(Cl)c(C#Cc4ccc(C(F)(F)F)cc4)c3)nn2CCCN2CCOCC2)C1 | –
40 nM | COC(=O)N1CCc2c(c(-c3ccc(Cl)c(C#Cc4ccc(Cl)cc4)c3)nn2CCCN2CCOCC2)C1 | –
480 nM | COc1ccc(C#Cc2cc(-c3nn(CCCN4CCOCC4)c4c3CN(S(C)(=O)=O)CC4)ccc2Cl)cc1 | –
430 nM | CS(=O)(=O)N1CCc2c(c(-c3ccc(Cl)c(C#Cc4ccc(N)cc4)c3)nn2CCCN2CCOCC2)C1 | –
